These results are taken from patent EP1914309A1 (priority 2006, dated 2008).

In assay [1] the test system is HIV-1. The following applies: concentration at which cell infection by a virus having tropism for said cell is 100% blocked. From the text:
A "saturating dose of an inhibitor" denotes a concentration of inhibitor at which cell infection by a virus having tropism for said cell is 100% blocked by the inhibitor, which is function of the inhibitor.

Assay [2] relates to X4 tropic virus. The conditions noted are these: mixture of viral envelopes from reference viruses NL4-3 and JR-CSF; infection via CXCR4; inhibitor at saturating dose; Figure 5.
Method: Viral supernatants are used to infect U373MG-CD4 indicator cells expressing either the CCR5 or CXCR4 co-receptor (U373-CCR5 or U373-CXCR4), in presence or absence of co-receptor inhibitors at a saturating dose. The indicator cells contain the lacZ gene under control of the HIV-1 LTR which allows the determination of viral infection and thus of viral tropism using a colorimetric assay based on the expression of the β-galactosidase by Tat (see Figure 4).
In the RVA tropism, viral infection is detected independently for both co-receptors. A sample is considered positive when the ratio [OD sample/ OD control] reaches or exceeds 1.5 (the control being an R5-tropic virus on CXCR4+ cells or a X4-tropic virus on CCR5+ cells).
On the day of infection, the condition of the indicator U373-CCR5 and U373-CXCR4 cells is verified. CXCR4- and CCR5-inhibitors are prepared at 4x their final concentrations used in the test (e.g. 4x AMD-3100 at 8 µg/ml). […]
The β-galactosidase produced by the infected U373-CCR5 or U373-CXCR4 cells is quantified: the level of marker expressed is quantified by measuring the β-galactosidase activity by using a CPRG (chlorophenolred-β-D-galactopyranoside) substrate. […]

On to `c1cc(CN2CCCNCCNCCCNCC2)ccc1CN1CCCNCCNCCCNCC1` [AMD3100], for which, in assay [1], the “saturating dose of an inhibitor” value is recorded as “up to 2 µg/ml”. Besides, the inhibition of infection in assay [2] was determined as 100%.
